Publication PMC12527977, “Discovery of a novel tetrapeptide as glucose homeostasis modulator with bifunctionalities of targeting DPP‐IV and microbiota” (iMeta, 2025)
Where a SMILES comes first, the peptide text is derived from it.

Experiment: Tissue distribution of VAMP 30 min after 10 mg/kg by gavage
Format: in vivo, mouse
Settings: for Tissue distribution, relative proportion in Heart / Tissue distribution, relative proportion in Intestinal content / Tissue distribution, relative proportion in Intestinal tissue / Tissue distribution, relative proportion in Kidney / Tissue distribution, relative proportion in Liver / Tissue distribution, relative proportion in Lung / Tissue distribution, relative proportion in Spleen: 10 mg/kg by gavage, 30 min
Method: FIGURE 2 VAMP inhibits intestinal dipeptidyl peptidase IV (DPP‐IV) and increases the abundance of A. muciniphila. (A) The experimental scheme for (B–O) is shown, n = 6 mice/group. HFD‐fed mice were treated with PBS (vehicle group) or VAMP (50 mg/kg, VAMP group) for 8 weeks by oral gavage. (B) The body weight change, (C) FBG level, (D) intestinal active GLP‐1 levels, (E) plasma active GLP‐1 levels, (F) OGTT curve, (G) AUC of the OGTT, and (H) HOMA‐IR index were evaluated. (I) Intestinal permeability was measured by plasma fluorescence intensity after gavage with FITC‐dextran 4000. (J) The plasma levels of LPS, (K) TNF‐α, and (L) IL‐1β were determined. (M) Carnoy‐fixed colonic tissue sections were stained with Alcian blue/periodic acid‐Schiff. Scale bars, 100 µm. (N) Blinded colonic mucus layer measurements were made from Alcian blue‐stained sections. (O) The relative expression of Tjp1, Ocln, Cldn1, Cldn3, Cldn4, Cldn5, and Muc2 mRNAs in colonic tissue was determined. (P) The blood pharmacokinetics of 10 mg/kg VAMP administered by injection (i.v.) or gavage (p.o.) over time were evaluated. (Q) The tissue distribution of VAMP at the time of peak plasma concentration (30 min) after the administration of 10 mg/kg VAMP by gavage was determined (n = 4). (R) PCoA was performed using the Bray‒Curtis distance. (S, T) Taxonomic cladograms were generated by LEfSe analysis. The blue color indicates enriched taxa in the VAMP group, and the red color indicates enriched taxa in the vehicle group. The size of each circle is proportional to the taxon's abundance. (U) The change in bacterial abundance at the species level after VAMP treatment was determined via random forest analysis. (V) Growth curve of A. muciniphila cultured in BHI media supplemented with VAMP (50 μM) or PBS (Vehicle) and then grown anaerobically. (W−Y) RNA‐seq analysis of the A. muciniphila cultured in BHI media supplemented with VAMP (50 μM) or PBS control (Vehicle) was performed (n = 3). (W) PCA of transcriptome. (X) Biofunction changes of A. muciniphila by VAMP treatment via KEGG enrichment analysis. (Y) Volcano plot of transcriptome sequencing of Vehicle and VAMP groups. (Z) Levels of peptidoglycan by VAMP treatment. *p < 0.05 and **p < 0.01 versus the vehicle group. AUC, area under the curve; BHI, brain heart infusion; FBG, fasting blood glucose; GLP‐1, glucagon‐like peptide‐1; HOMA‐IR, homeostatic model assessment of insulin resistance; IL‐1β, interleukin‐1β; LEfSe, linear discriminant analysis effect size; LPS, lipopolysaccharide; OGTT, oral glucose tolerance test; PCoA, principal coordinate analysis; TNF‐α, tumor necrosis factor α.
We first determined the VAMP metabolic kinetics in model mice.

In the case of `CSCC[C@H](NC(=O)[C@H](C)NC(=O)[C@@H](N)C(C)C)C(=O)N1CCC[C@H]1C(=O)O` [VAMP] (H-VAMP-OH), the “Tissue distribution, relative proportion in Heart” value (animal 1) is reported as 0.7129%, the “Tissue distribution, relative proportion in Intestinal content” value (animal 1) is reported as 72.8435% and the “Tissue distribution, relative proportion in Intestinal tissue” value (animal 1) is reported as 17.3859%. For the same molecule, the “Tissue distribution, relative proportion in Kidney” value (animal 1) was 1.873%, the “Tissue distribution, relative proportion in Liver” value (animal 1) was 2.36% and the “Tissue distribution, relative proportion in Lung” value (animal 1) was 1.2931%. For the same molecule, the “Tissue distribution, relative proportion in Spleen” value (animal 1) was 3.531%, the “Tissue distribution, relative proportion in Heart” value (animal 2) was 0.3824% and the “Tissue distribution, relative proportion in Intestinal content” value (animal 2) was 73.0882%. For the same molecule, the “Tissue distribution, relative proportion in Intestinal tissue” value (animal 2) was 19.9706%, the “Tissue distribution, relative proportion in Kidney” value (animal 2) was 1.279% and the “Tissue distribution, relative proportion in Liver” value (animal 2) was 2.103%. The “Tissue distribution, relative proportion in Lung” value (animal 2) was 0.9118%, the “Tissue distribution, relative proportion in Spleen” value (animal 2) was 2.265% and the “Tissue distribution, relative proportion in Heart” value (animal 3) was 0.4562%. For the same molecule, the “Tissue distribution, relative proportion in Intestinal content” value (animal 3) was 74.7307%, the “Tissue distribution, relative proportion in Intestinal tissue” value (animal 3) was 19.1872% and the “Tissue distribution, relative proportion in Kidney” value (animal 3) was 0.6681%. For the same molecule, the “Tissue distribution, relative proportion in Liver” value (animal 3) was 1.699%, the “Tissue distribution, relative proportion in Lung” value (animal 3) was 0.5703% and the “Tissue distribution, relative proportion in Spleen” value (animal 3) was 2.689%. For the same molecule, the “Tissue distribution, relative proportion in Heart” value (animal 4) was 0.5116%, the “Tissue distribution, relative proportion in Intestinal content” value (animal 4) was 76.0476% and the “Tissue distribution, relative proportion in Intestinal tissue” value (animal 4) was 16.2858%. For the same molecule, the “Tissue distribution, relative proportion in Kidney” value (animal 4) was 1.305%, the “Tissue distribution, relative proportion in Liver” value (animal 4) was 2.163% and the “Tissue distribution, relative proportion in Lung” value (animal 4) was 0.882%. The “Tissue distribution, relative proportion in Spleen” value (animal 4) was 2.805% and the “VAMP remaining in the intestinal content at the time of peak plasma concentration” value (after gavage) was 74.18%.
